Results on one compound are retold here after PMC9688530, “Development of Ic-ELISA and Colloidal Gold Lateral Flow Immunoassay for the Determination of Cypermethrin in Agricultural Samples” (Biosensors, 2022).

Structures are written as SMILES. Converted amounts (≈) assume the structure as drawn. “And” between values parts separate entries of the source, which are not always exact repeats. Identical values can stand only once.

On the set-up of data set [1]: method as in doi:10.1016/j.cropro.2009.01.003. Conditions: cited from earlier work.
In a further data set the test system is antibody against CYP. More on the design: method as in PMID 26965575. The conditions noted are these: cited from earlier work.
The subject of the next data set is anti-CYP mAb 6F1G10. The data set is described as follows: homologous ic-ELISA, hapten 1 coating antigen, mAb 6F1G10. Format: binding, mouse. Conditions: hapten 1 as coating antigen. As to the method:
(§1) The ic-ELISA procedure was executed according to previous studies. Each well of the ELISA plate was coated with 100 μL of coating antigen diluted with carbonate buffer (0.05 mol/L, pH 9.6) at 4 °C overnight. After washing three times with phosphate-buffered saline (PBS, 0.01 mol/L, pH 7.4) containing 1‰ Tween-20, the wells were blocked with 200 μL of 5% skim milk powder in PBS at 37 °C for two hours. After the same washing procedure, 50 μL of CYP standard solution and 50 μL of mAb were pipetted into each well and incubated at 37 °C for one hour. After washing five times, 100 μL per well of 0.5‰ horseradish peroxidase-labeled goat anti-mouse IgG antibody in PBS was added and incubated at 37 °C for one hour. After the wells were washed five times, 100 μL per well of fresh substrate solution (0.1 mg/mL 3,3′,5,5′-tetramethylbenzidine and 0.024‰ H2O2 in 0.1 M citrate acid buffer) was added to react at 37 °C for 15 min. Then, 50 μL per well of 0.2 mol/L H2SO4 was used to stop the reaction, and the absorbances were read at 450 nm with a microplate reader.
(§2) After five immunizations, the anti-serum of five mice was collected to determine the serum titer. All mouse serum had high titers ranging from 1:64,000 to 1:256,000. […] Then, the sensitivity of these monoclonal antibodies was evaluated by homologous ic-ELISA. […] The subtype of mAb 2G7H9 was determined as IgG2b by a kit. […]
On the technique in general: In an ELISA, binding on a coated surface is turned into a signal by an enzyme label.

In a further data set the test system is monoclonal antibody. Set-up: method as in doi:10.1080/09540105.2013.794328. Conditions: ic-ELISA based on a monoclonal antibody; cited from earlier work.
In the next data set the test system is anti-CYP mAb 1E7D5. The data set is described as follows: homologous ic-ELISA, hapten 1 coating antigen, mAb 1E7D5. Format: binding, mouse. The conditions noted are these: hapten 1 as coating antigen. As to the method:
as §1, §2

What is called IC50 is the concentration at which inhibition is half-maximal. In the case of `CC1(C)C(C=C(Cl)Cl)C1C(=O)OC(C#N)c1cccc(Oc2ccccc2)c1` (centres unmarked) [CYP, Cypermethrin], the minimum detection concentration in data set [1] is given as 800 ng/mL. Besides, the half-inhibitory concentration (IC50) is 2.59 ng/mL and 2.6 ng/mL in the data set on antibody against CYP; 575 ng/mL (≈ 1380 nM) with anti-CYP mAb 6F1G10; 1.7 ng/mL (≈ 4.08 nM) with monoclonal antibody; 314 ng/mL (≈ 754 nM) in the data set on anti-CYP mAb 1E7D5.
